In patent US20250129088A1, “CEREBLON E3 UBIQUITIN LIGASE INHIBITOR” (Gan & Lee Pharmaceuticals Co., Ltd., priority 2022, published 2025) one finds IC50 data, which are given here for 15 molecules.

One may read the pIC50 as the IC50 on a negative log10 scale, so that one unit is a factor of ten. High values mean a low IC50, low ones a high IC50.

Assay type in all cases: cell-based
For one test, the system named is K562 cells. Description: K562 cell proliferation inhibition, CCK-8. As to conditions: K562, 4 days. As to the method:
The complete medium required for K562 cells is IMDM (ATCC, Product number: 30-2005) basal medium containing 10% fetal bovine serum. K562 cells were seeded in a 96-well plate at a density of 7,500 cells/well, and different concentrations of the compound of the present invention and positive control samples Alisertib (source: Bide Pharmaceuticals) and dBET6 (source: Bide Pharmaceuticals) were prepared to treat the cells. The cells were incubated at a 37° C., 5% CO2 cell culture incubator for 4 days.
Cell viability was detected using the CCK-8 kit (Beyotime, Product number: C0040) according to the manufacturer's instructions. According to the inhibition rate, GraphPad Prism software was used to calculate the IC50 value of each compound for 4 days, and the results are shown in Table 11-12.

The next test concerns MV-4-11 cells. As to the kind of experiment: MV-4-11 cell proliferation inhibition, CCK-8. As to conditions: Homo sapiens, MV4-11, 96 h, MV-4-11, 4 days, Table 6, positive control Alisertib. Here is the method: The complete medium required for MV-4-11 cells is IMDM (ATCC, Product number: 30-2005) basal medium containing 10% fetal bovine serum. MV-4-11 cells were seeded in a 96-well plate at a density of 7,500 cells/well, and different concentrations of the compound of the present invention and positive control samples Alisertib (source: Bide Pharmaceuticals), Palbociclib (source: Bide Pharmaceuticals), Ibrutinib (source Bide Pharmaceuticals) treated cells. The cells were incubated in a 37° C., 5% CO2 cell incubator for 4 days. Cell viability was detected using the CCK-8 kit (Beyotime, Product number: C0040) according to the manufacturer's instructions. According to the inhibition rate, GraphPad Prism software was used to calculate the IC50 value of each compound for 4 days, and the results are shown in Table 6-8.

In a further test the test system is VCaP cells. Description: VCaP cell proliferation inhibition, CCK-8. The note with it: Homo sapiens, 168 h, 7 days. An excerpt: The complete medium required for VCaP cells is DMEM high glucose (Gibco, Product number: 11995-065) basal medium containing 10% fetal bovine serum. […] Cell viability was detected using the CCK-8 kit (Beyotime, Product number: C0040) according to the manufacturer's instructions.

Another test relates to LNCaP FGC cells. Description: LNCaP FGC cell proliferation inhibition, CCK-8. As to conditions: Homo sapiens, 96 h, 4 days. The text has this: The complete medium required for LNCaP FGC cells is RPMI 1640 (ATCC, Product number: 30-2001) basal medium containing 10% fetal calf serum. […] Cell viability was detected using the CCK-8 kit (Beyotime, Product number: C0040) according to the manufacturer's instructions.

Setting [1] is: Homo sapiens, 96 h, Table 11, positive control Alisertib.
The mark [2] stands for this setting: Homo sapiens, 96 h, Table 12, positive control dBET6.

pIC50: −log10 of the molar value.

Turning to `COc1cc(Nc2ncc3c(n2)-c2ccc(Cl)cc2C(c2c(F)cccc2OC)=NC3)ccc1C(=O)O` [Alisertib, reference compound], the pIC50 was 5.42 in the test on K562 cells (setting [1]) and 7.59 with MV-4-11 cells.
In the same order, the values of `COc1cc(Nc2ncc3c(n2)-c2ccc(Cl)cc2C(c2c(F)cccc2OC)=NC3)ccc1C(=O)N1CCC2(CCc3cc4c(cc3O2)CN(C2CCC(=O)NC2=O)C4=O)CC1` (stereo not drawn) [PROTAC 1, 3-(1-(4-((9-chloro-7-(2-fluoro-6-methoxyphenyl)-5H-benzo[c]pyrimido[4,5-e]azepine-2-yl)amino)-2-methoxybenzoyl)-6′-oxo-3′,4′,6′,8′-tetrahydro-7′H-spiro[piperidine-4,2′-pyrano[2,3-f]isoindol]-7′-yl)piperidine-2,6-dione] are 6.82 and 6.92.
For `COc1cc(Nc2ncc3c(n2)-c2ccc(Cl)cc2C(c2c(F)cccc2OC)=NC3)ccc1C(=O)N1CC2(CCc3cc4c(cc3O2)CN(C2CCC(=O)NC2=O)C4=O)C1` (stereo not drawn) [PROTAC 3, 3-(1-(4-((9-chloro-7-(2-fluoro-6-methoxyphenyl)-5H-benzo[c]pyrimido[4,5-e]azepine-2-yl)amino)-2-methoxybenzoyl)-6′-oxo-3′,4′,6′,8′-tetrahydro-7′H-spiro[azetidine-3,2′-pyrano[2,3-f]isoindole]-7′-yl)piperidine-2,6-dione], in that order: 6.39 and 7.11.
With `COc1cc(Nc2ncc3c(n2)-c2ccc(Cl)cc2C(c2c(F)cccc2OC)=NC3)ccc1C(=O)N1CC2(CCc3cc4c(cc3O2)C(=O)N(C2CCC(=O)NC2=O)C4)C1` (stereo not drawn) [PROTAC 4, 3-(1-(4-((9-chloro-7-(2-fluoro-6-methoxyphenyl)-5H-benzo[c]pyrimido[4,5-e]azepine-2-yl)amino)-2-methoxybenzoyl)-8′-oxo-3′,4′,6′,8′-tetrahydro-7′H-spiro[azetidine-3,2′-pyrano[2,3-f]isoindole]-7′-yl)piperidine-2,6-dione], the pIC50 in the test with K562 cells (setting [1]) was 6.66; in the test with MV-4-11 cells, 7.60.
In the case of `COc1cc(Nc2ncc3c(n2)-c2ccc(Cl)cc2C(c2c(F)cccc2OC)=NC3)ccc1C(=O)NCCOCCC(=O)N1CCC2(CC1)COc1cc3c(cc12)C(=O)N(C1CCC(=O)NC1=O)C3=O` (stereo not drawn) [PROTAC 7, 4-((9-chloro-7-(2-fluoro-6-methoxyphenyl)-5H-benzo[c]pyrimido[4,5-e]azepine-2-yl)amino)-N-(2-(3-(6-(2,6-dioxopiperidin-3-yl)-5,7-dioxo-6,7-dihydro-2H,5H-spiro[furan [2,3-f]isoindole-3,4′-piperidin]-1′-yl)-3-oxopropoxy)ethyl)-2-methoxybenzamide], the negative-log IC50 (pIC50) in the test with K562 cells (setting [1]) was 5.83; in the test on MV-4-11 cells, 6.44.
In the test with K562 cells (setting [2]), `Cc1nc(Nc2ncc(C(=O)Nc3c(C)cccc3Cl)s2)cc(N2CCN(CCOCCC(=O)N3CC4(CCc5cc6c(cc5O4)C(=O)N(C4CCC(=O)NC4=O)C6=O)C3)CC2)n1` (stereo not drawn) [PROTAC 11, N-(2-chloro-6-methylphenyl)-2-((6-(4-(2-(3-(7′-(2,6-dioxopiperidin-3-yl)-6′,8′-dioxo-4′,6′,7′,8′-tetrahydro-3′H-spiro[azetidine-3,2′-pyrano[2,3-f]isoindol]-1-yl)-3-oxopropoxy)ethyl)piperazin-1-yl)-2-methylpyrimidin-4-yl)amino)thiazole-5-carboxamide] showed a pIC50 of 7.18.
For `Cc1nc(Nc2ncc(C(=O)Nc3c(C)cccc3Cl)s2)cc(N2CCN(CCOCCC(=O)N3CCC4(CCc5cc6c(cc5O4)C(=O)N(C4CCC(=O)NC4=O)C6)CC3)CC2)n1` (stereo not drawn) [PROTAC 13, N-(2-chloro-6-methylphenyl)-2-((6-(4-(2-(3-(7′-(2,6-dioxopiperidin-3-yl)-8′-oxo-4′,6′,7′,8′-tetrahydro-3′H-spiro[piperidine-4,2′-pyrano[2,3-f]isoindole]-1-yl)-3-oxopropoxy)ethyl)piperazin-1-yl)-2-methylpyrimidin-4-yl)amino)thiazole-5-carboxamide], in the test on K562 cells (setting [2]), the pIC50 was 7.70.
On the same count and under the same terms, for `Cc1nc(Nc2ncc(C(=O)Nc3c(C)cccc3Cl)s2)cc(N2CCN(CCOCCC(=O)N3CC4(CCc5cc6c(cc5O4)C(=O)N(C4CCC(=O)NC4=O)C6)C3)CC2)n1` (stereo not drawn) [PROTAC 14, N-(2-chloro-6-methylphenyl)-2-((6-(4-(2-(3-(7′-(2,6-dioxopiperidin-3-yl)-8′-oxo-4′,6′,7′,8′-tetrahydro-3′H-spiro[azetidine-3,2′-pyrano[2,3-f]isoindol]-1-yl)-3-oxopropoxy)ethyl)piperazin-1-yl)-2-methylpyrimidin-4-yl)amino)thiazole-5-carboxamide] the value was 7.24.
In the test with K562 cells (setting [2]), `Cc1nc(Nc2ncc(C(=O)Nc3c(C)cccc3Cl)s2)cc(N2CCN(CCOCCC(=O)N3CCC4(CC3)COc3cc5c(cc3O4)CN(C3CCC(=O)NC3=O)C5=O)CC2)n1` (stereo not drawn) [PROTAC 15, N-(2-chloro-6-methylphenyl)-2-((6-(4-(2-(3-(7′-(2,6-dioxopiperidin-3-yl)-6′-oxo-7′,8′-dihydro-3′H,6′H-spiro[piperidine-4,2′-[1,4]dioxino[2,3-f]isoindol]-1-yl)-3-oxopropoxy)ethyl)piperazin-1-yl)-2-methylpyrimidin-4-yl)amino)thiazole-5-carboxamide] gave a pIC50 of 8.30. This pIC50 is 1.06 log units higher than that of the molecule before.
For the molecule `Cc1nc(Nc2ncc(C(=O)Nc3c(C)cccc3Cl)s2)cc(N2CCN(CCOCCC(=O)N3CC4(CCc5cc6c(cc5O4)CN(C4CCC(=O)NC4=O)C6=O)C3)CC2)n1` (stereo not drawn) [PROTAC 16, N-(2-chloro-6-methylphenyl)-2-((6-(4-(2-(3-(7′-(2,6-dioxopiperidin-3-yl)-6′-oxo-4′,6′,7′,8′-tetrahydro-3′H-spiro[azetidine-3,2′-pyrano[2,3-f]isoindole]-1-yl)-3-oxopropoxy)ethyl)piperazin-1-yl)-2-methylpyrimidin-4-yl)amino)thiazole-5-carboxamide], in the test on K562 cells (setting [2]), the negative logarithm of the IC50 (pIC50) is 7.32.
With `CC1(C)C(=O)N(c2ccc(C#N)c(C(F)(F)F)c2)C(=S)N1c1ccc(C(=O)N2CC(N3CC4(CCc5cc6c(cc5O4)C(=O)N(C4CCC(=O)NC4=O)C6=O)C3)C2)c(F)c1` (stereo not drawn) [PROTAC 77, 4-(3-(4-(3-(7′-(2,6-dioxopiperidin-3-yl)-6′,8′-dioxo-4′,6′,7′,8′-tetrahydro-3′H-spiro [azetidine-3,2′-pyrano[2,3-f]isoindole]-1-yl)azetidine-1-carbonyl)-3-fluorophenyl)-4,4-dimethyl-5-oxo-2-thioimidazolidin-1-yl)-2-(trifluoromethyl)benzonitrile], the pIC50 was 5.69 with VCaP cells and 5.19 with LNCaP FGC cells.
For `CC1(C)C(=O)N(c2ccc(C#N)c(C(F)(F)F)c2)C(=S)N1c1ccc(C(=O)N2CCC(N3CCC4(CC3)COc3cc5c(cc34)C(=O)N(C3CCC(=O)NC3=O)C5=O)CC2)c(F)c1` (stereo not drawn) [PROTAC 80, 4-(3-(4-(4-(6-(2,6-dioxopiperidin-3-yl)-5,7-dioxo-6,7-dihydro-2H,5H-spiro[furo[2,3-f]isoindole-3,4′-piperidin]-1′-yl)piperidine-1-carbonyl)-3-fluorophenyl)-4,4-dimethyl-5-oxo-2-thioimidazolidin-1-yl)-2-(trifluoromethyl)benzonitrile], in that order: 5.02 and 5.49.
In the case of `CC1(C)C(=O)N(c2ccc(C#N)c(C(F)(F)F)c2)C(=S)N1c1ccc(C(=O)N2CCC3(CCC(N4CCC5(CCc6cc7c(cc6O5)C(=O)N(C5CCC(=O)NC5=O)C7=O)CC4)CC3)CC2)c(F)c1` (stereo not drawn) [PROTAC 83, 4-(3-(4-(9-(7′-(2,6-dioxopiperidin-3-yl)-6′,8′-dioxo-4′,6′,7′,8′-tetrahydro-3′H-spiro[piperidine-4,2′-pyrano[2,3-f]isoindol]-1-yl)-3-azaspiro[5.5]undecane-3-carbonyl)-3-fluorophenyl)-4,4-dimethyl-5-oxo-2-thioimidazolidin-1-yl)-2-(trifluoromethyl)benzonitrile], the pIC50 with VCaP cells is 6.05; with LNCaP FGC cells it was 5.58.
For the molecule `CC1(C)C(=O)N(c2ccc(C#N)c(C(F)(F)F)c2)C(=S)N1c1ccc(C(=O)N2CC3(CC(N4CCC5(CCc6cc7c(cc6O5)C(=O)N(C5CCC(=O)NC5=O)C7=O)CC4)C3)C2)c(F)c1` (stereo not drawn) [PROTAC 85, 4-(3-(4-(6-(7′-(2,6-dioxopiperidin-3-yl)-6′,8′-dioxo-4′,6′,7′,8′-tetrahydro-3′H-spiro[piperidin-4,2′-pyrano[2,3-f]isoindol]-1-yl)-2-azaspiro[3.3]heptane-2-carbonyl)-3-fluorophenyl)-4,4-dimethyl-5-oxo-2-thioimidazolidin-1-yl)-2-(trifluoromethyl)benzonitrile], the values for the negative-log IC50 (pIC50) in the test with VCaP cells and in the test on LNCaP FGC cells were 6.21 and 4.55, respectively.
In turn, `Cc1sc2c(c1C)C(c1ccc(Cl)cc1)=N[C@@H](CC(=O)NCCCCCCCCNC(=O)COc1cccc3c1C(=O)N(C1CCC(=O)NC1=O)C3=O)c1nnc(C)n1-2` (stereo partly drawn) [dBET6, reference compound] gave a pIC50 with K562 cells (Table 12, positive control dBET6) of 9.00.
